Drawing on ChEMBL document CHEMBL3046163, “Cross-resistance relationships between neonicotinoids and pymetrozine in Bemisia tabaci (Hemiptera: Aleyrodidae)” (2010), this text covers LC50 and RatioLC50 for four compounds.

In brackets after ≈: the same amount, converted by molar mass.

What all share (assay type): functional
Assay [1] concerns Bemisia tabaci. Description: Insecticidal activity against Bemisia tabaci biotype-Q Q3 (sweet potato whitefly) after 48 hr by leaf-dip bioassay. The following applies: biotype-Q Q3, 48 h.
Assay [2] has as its system Bemisia tabaci. Put plainly: Resistance ratio of LC50 for Bemisia tabaci biotype-Q Q1 (sweet potato whitefly) to LC50 for Bemisia tabaci LABS.
Assay [3] has as its system Bemisia tabaci. Put plainly: Insecticidal activity against Bemisia tabaci biotype-B B2 (sweet potato whitefly) after 48 hr by leaf-dip bioassay. The following applies: biotype-B B2, 48 h.
For assay [4], the system named is Bemisia tabaci. Put plainly: Insecticidal activity against Bemisia tabaci biotype-B B1 (sweet potato whitefly) after 48 hr by leaf-dip bioassay. The conditions noted are these: biotype-B B1, 48 h.
The test system of assay [5] is Bemisia tabaci. Description: Insecticidal activity against Bemisia tabaci biotype-Q Q2 (sweet potato whitefly) after 48 hr by leaf-dip bioassay. The conditions noted are these: biotype-Q Q2, 48 h.
Assay [6] has as its system Bemisia tabaci. Description: Resistance ratio of LC50 for Bemisia tabaci biotype-B B4 (sweet potato whitefly) to LC50 for Bemisia tabaci LABS.
In assay [7] the test system is Bemisia tabaci. Description: Resistance ratio of LC50 for Bemisia tabaci biotype-Q Q3 (sweet potato whitefly) to LC50 for Bemisia tabaci LABS.
The test system of assay [8] is Bemisia tabaci. Description: Resistance ratio of LC50 for Bemisia tabaci biotype-B B1 (sweet potato whitefly) to LC50 for Bemisia tabaci LABS.
The subject of assay [9] is Bemisia tabaci. Description: Resistance ratio of LC50 for Bemisia tabaci biotype-Q Q2 (sweet potato whitefly) to LC50 for Bemisia tabaci LABS.
Assay [10] relates to Bemisia tabaci. Description: Insecticidal activity against Bemisia tabaci biotype-B B4 (sweet potato whitefly) after 48 hr by leaf-dip bioassay. The conditions noted are these: biotype-B B4, 48 h.
Assay [11] deals with Bemisia tabaci. Put plainly: Resistance ratio of LC50 for Bemisia tabaci biotype-B B2 (sweet potato whitefly) to LC50 for Bemisia tabaci LABS.
For assay [12], the system named is Bemisia tabaci. Description: Insecticidal activity against Bemisia tabaci biotype-Q Q1 (sweet potato whitefly) after 48 hr by leaf-dip bioassay. The following applies: biotype-Q Q1, 48 h.
Assay [13] relates to Bemisia tabaci. Description: Resistance ratio of LC50 for Bemisia tabaci biotype-B B3 (sweet potato whitefly) to LC50 for Bemisia tabaci LABS.
Assay [14] concerns Bemisia tabaci. Put plainly: Insecticidal activity against Bemisia tabaci LABS (sweet potato whitefly) after 48 hr by leaf-dip bioassay.
The test system of assay [15] is Bemisia tabaci. Description: Insecticidal activity against Bemisia tabaci biotype-B B3 (sweet potato whitefly) after 48 hr by leaf-dip bioassay. The following applies: biotype-B B3, 48 h.
Assay [16] relates to Bemisia tabaci. Description: Insecticidal activity against pymetrozine-selected Bemisia tabaci B2 (sweet potato whitefly) after 48 hr by leaf-dip bioassay. The following applies: B2, 48 h.
Assay [17] relates to Bemisia tabaci. Put plainly: Selectivity ratio of LC50 for pymetrozine-selected Bemisia tabaci B2 (sweet potato whitefly) to LC50 for Bemisia tabaci B2.
Assay [18] deals with Bemisia tabaci. Description: Insecticidal activity against Bemisia tabaci biotype-Q Q1 (sweet potato whitefly) after 96 hr by leaf-dip bioassay. The following applies: biotype-Q Q1, 96 h.
For assay [19], the system named is Bemisia tabaci. Description: Insecticidal activity against Bemisia tabaci biotype-B B2 (sweet potato whitefly) after 96 hr by leaf-dip bioassay. The following applies: biotype-B B2, 96 h.
The test system of assay [20] is Bemisia tabaci. Description: Insecticidal activity against Bemisia tabaci LABS (sweet potato whitefly) after 96 hr by leaf-dip bioassay.
Assay [21] concerns Bemisia tabaci. Put plainly: Insecticidal activity against pymetrozine-selected Bemisia tabaci B1B3 (sweet potato whitefly) after 96 hr by leaf-dip bioassay. The following applies: B1B3, 96 h.
The subject of assay [22] is Bemisia tabaci. Description: Insecticidal activity against Bemisia tabaci biotype-B B1 (sweet potato whitefly) after 96 hr by leaf-dip bioassay. The conditions noted are these: biotype-B B1, 96 h.
Assay [23] deals with Bemisia tabaci. Description: Insecticidal activity against Bemisia tabaci biotype-Q Q3 (sweet potato whitefly) after 96 hr by leaf-dip bioassay. The following applies: biotype-Q Q3, 96 h.
Assay [24] deals with Bemisia tabaci. Description: Insecticidal activity against Bemisia tabaci biotype-Q Q2 (sweet potato whitefly) after 96 hr by leaf-dip bioassay. The conditions noted are these: biotype-Q Q2, 96 h.
Assay [25] concerns Bemisia tabaci. Description: Insecticidal activity against Bemisia tabaci biotype-B B4 (sweet potato whitefly) after 96 hr by leaf-dip bioassay. The following applies: biotype-B B4, 96 h.
Assay [26] has as its system Bemisia tabaci. Put plainly: Insecticidal activity against Bemisia tabaci biotype-B B3 (sweet potato whitefly) after 96 hr by leaf-dip bioassay. The following applies: biotype-B B3, 96 h.
The test system of assay [27] is Bemisia tabaci. Description: Selectivity ratio of LC50 for thiamethoxam-selected Bemisia tabaci B1B3 (sweet potato whitefly) to LC50 for Bemisia tabaci B1B3.
Assay [28] has as its system Bemisia tabaci. Put plainly: Insecticidal activity against pymetrozine-selected Bemisia tabaci B2 (sweet potato whitefly) after 96 hr by leaf-dip bioassay. The conditions noted are these: B2, 96 h.
For assay [29], the system named is Bemisia tabaci. Put plainly: Selectivity ratio of LC50 for pymetrozine-selected Bemisia tabaci B1B3 (sweet potato whitefly) to LC50 for Bemisia tabaci B1B3.
For assay [30], the system named is Bemisia tabaci. Description: Insecticidal activity against Bemisia tabaci B1B3 (sweet potato whitefly) after 96 hr by leaf-dip bioassay. The following applies: B1B3, 96 h.
Assay [31] has as its system Bemisia tabaci. Put plainly: Insecticidal activity against thiamethoxam-selected Bemisia tabaci B1B3 (sweet potato whitefly) after 96 hr by leaf-dip bioassay. The following applies: B1B3, 96 h.
Assay [32] concerns Bemisia tabaci. Put plainly: Insecticidal activity against thiamethoxam-selected Bemisia tabaci B1B3 (sweet potato whitefly) after 48 hr by leaf-dip bioassay. The conditions noted are these: B1B3, 48 h.
For assay [33], the system named is Bemisia tabaci. Put plainly: Insecticidal activity against pymetrozine-selected Bemisia tabaci B1B3 (sweet potato whitefly) after 48 hr by leaf-dip bioassay. The following applies: B1B3, 48 h.
For assay [34], the system named is Bemisia tabaci. Description: Insecticidal activity against Bemisia tabaci B1B3 (sweet potato whitefly) after 48 hr by leaf-dip bioassay. The conditions noted are these: B1B3, 48 h.

The term LC50 denotes the concentration that kills 50% of the test population. Read a low LC50 as greater toxicity. Take `C/C(=N\C#N)N(C)Cc1ccc(Cl)nc1` [ACETAMIPRID]: the LC50 stood at 210 µg/mL (≈ 943 µM) with Bemisia tabaci [1]; 4.3 µg/mL (≈ 19.3 µM) with Bemisia tabaci [3]; 7.6 µg/mL (≈ 34.1 µM) with Bemisia tabaci [4]; 74 µg/mL (≈ 332 µM) with Bemisia tabaci [5]; 54 µg/mL (≈ 243 µM) with Bemisia tabaci [10]; 3.5 µg/mL (≈ 15.7 µM) in the assay with Bemisia tabaci [12]. Besides, the LC50 with Bemisia tabaci [14] amounted to 3.7 µg/mL (≈ 16.6 µM); in the assay on Bemisia tabaci [15] it was 110 µg/mL (≈ 494 µM). The RatioLC50 worked out at 0.95 with Bemisia tabaci [2]; 15 with Bemisia tabaci [6]; 57 in the assay on Bemisia tabaci [7]; 2.1 in the assay on Bemisia tabaci [8]; 20 with Bemisia tabaci [9]; 1.2 with Bemisia tabaci [11]. Moreover, in the assay with Bemisia tabaci [13], the RatioLC50 came out at 30.
On to `O=[N+]([O-])/N=C1\NCCN1Cc1ccc(Cl)nc1` [IMIDACLOPRID], for which the 50% lethal concentration (LC50) came to 4100 µg/mL (≈ 16000 µM) with Bemisia tabaci [1]; 17 µg/mL (≈ 66.5 µM) in the assay with Bemisia tabaci [3]; 5.8 µg/mL (≈ 22.7 µM) in the assay on Bemisia tabaci [4]; 2000 µg/mL (≈ 7820 µM) in the assay on Bemisia tabaci [5]; 1100 µg/mL (≈ 4300 µM) in the assay on Bemisia tabaci [10]; 8.5 µg/mL (≈ 33.2 µM) with Bemisia tabaci [12]. Besides, the LC50 in the assay on Bemisia tabaci [16] stood at 23 µg/mL (≈ 90 µM); in the assay on Bemisia tabaci [14], 4.8 µg/mL (≈ 18.8 µM); in the assay on Bemisia tabaci [15], 1100 µg/mL (≈ 4300 µM). The RatioLC50 was 1.8 with Bemisia tabaci [2]; 230 in the assay on Bemisia tabaci [6]; 850 in the assay on Bemisia tabaci [7]; 1.2 in the assay on Bemisia tabaci [8]; 420 with Bemisia tabaci [9]; 3.5 with Bemisia tabaci [11]. The values for the RatioLC50 with Bemisia tabaci [17] and in the assay with Bemisia tabaci [13] were 0.92 and 230, respectively.
As for `CC1=NNC(=O)N(/N=C/c2cccnc2)C1` [PYMETROZINE], the median lethal concentration (LC50) in the assay on Bemisia tabaci [18] worked out at 14 µg/mL (≈ 64.4 µM); in the assay with Bemisia tabaci [19], 220 µg/mL (≈ 1010 µM); in the assay on Bemisia tabaci [20] it was 2.4 µg/mL (≈ 11 µM); in the assay with Bemisia tabaci [21] it was 3200 µg/mL (≈ 14700 µM); in the assay with Bemisia tabaci [22] it was 3.9 µg/mL (≈ 18 µM); in the assay on Bemisia tabaci [23], 4600 µg/mL (≈ 21200 µM). Further, the LC50 in the assay on Bemisia tabaci [24] turned out to be 930 µg/mL (≈ 4280 µM); in the assay with Bemisia tabaci [25] it was 1200 µg/mL (≈ 5520 µM); in the assay with Bemisia tabaci [26], 1200 µg/mL (≈ 5520 µM); in the assay on Bemisia tabaci [28], 15000 µg/mL (≈ 69100 µM); with Bemisia tabaci [30] it was 140 µg/mL (≈ 644 µM); in the assay on Bemisia tabaci [31], 1100 µg/mL (≈ 5060 µM). The RatioLC50 with Bemisia tabaci [2] came to 5.8; in the assay with Bemisia tabaci [6], 520; in the assay with Bemisia tabaci [7], 1900; in the assay on Bemisia tabaci [8], 1.6; with Bemisia tabaci [9], 390; in the assay with Bemisia tabaci [27], 7.9. Further, the RatioLC50 was 92 in the assay with Bemisia tabaci [11], 23 with Bemisia tabaci [29], 54 in the assay on Bemisia tabaci [17] and 1100 in the assay on Bemisia tabaci [13].
With `CN1COCN(Cc2cnc(Cl)s2)/C1=N\[N+](=O)[O-]` [THIAMETHOXAM], the LC50 with Bemisia tabaci [1] is 2000 µg/mL (≈ 6860 µM); with Bemisia tabaci [3], 12 µg/mL (≈ 41.1 µM); in the assay on Bemisia tabaci [32] it was 450 µg/mL (≈ 1540 µM); in the assay with Bemisia tabaci [4], 4.5 µg/mL (≈ 15.4 µM); with Bemisia tabaci [5], 980 µg/mL (≈ 3360 µM); in the assay with Bemisia tabaci [33] it was 290 µg/mL (≈ 994 µM). For the same compound, the LC50 with Bemisia tabaci [10] worked out at 300 µg/mL (≈ 1030 µM); with Bemisia tabaci [34], 64 µg/mL (≈ 219 µM); in the assay with Bemisia tabaci [12], 15 µg/mL (≈ 51.4 µM); in the assay on Bemisia tabaci [16], 8.6 µg/mL (≈ 29.5 µM); in the assay with Bemisia tabaci [14] it was 4.1 µg/mL (≈ 14.1 µM); with Bemisia tabaci [15], 100 µg/mL (≈ 343 µM). Further, the RatioLC50 in the assay with Bemisia tabaci [2] is 3.7; in the assay on Bemisia tabaci [6] it was 73; in the assay on Bemisia tabaci [7], 490; with Bemisia tabaci [8] it was 6.3; with Bemisia tabaci [9] it was 240; in the assay on Bemisia tabaci [27] it was 7. Moreover, the RatioLC50 in the assay on Bemisia tabaci [11] is listed as 2.9; in the assay with Bemisia tabaci [29], 4.5; in the assay on Bemisia tabaci [17] it was 0.29; in the assay on Bemisia tabaci [13], 150.
